This note sets out measurements from patent EP4567040A1, “CRYSTAL FORM OF FUSED TRICYCLIC DERIVATIVE AND PREPARATION METHOD” (Jiangsu Hengrui Pharmaceuticals Co., Ltd., priority 2022, dated 2024).

The nature of data set [1]: Thermodynamic solubility testing in pH 7.4 phosphate buffer. In kind it is physicochemical. As to conditions: sodium phosphate buffer, aqueous buffer, thermodynamic from solid, 25 °C. The protocol: The thermodynamic solubility of the compounds in a pH 7.4 phosphate buffer was determined. Both the sample supernatant and the standard of a known concentration were tested by LC/MS/MS.
15.6 g of NaH2PO4·2H2O was weighed out, placed into a 1 L glass flask, and dissolved in 1 L of deionized water. The pH of the solution was approximately 4.7, and then the pH was adjusted to 7.4 with 10 M NaOH.
1 mg of each compound powder was accurately weighed out and placed in a glass tube. The pH 7.4 sodium phosphate buffer was added to the glass tube, with 1 mL of the buffer added for each milligram of the compound powder. A stirring bar was added to each glass tube, and the glass tube was closed with a cap. […] The observations in each glass tube were recorded. […] The recorded observations and dilution factors
1 mg of each compound powder was accurately weighed out and added to a glass tube, and DMSO was added to each glass tube, with 1 mL of DMSO added for each milligram of the compound powder. […] Samples were analyzed by LC/MS/MS. […]
All calculations were performed using Microsoft Excel. Samples were analyzed by LC/MS/MS and quantified based on the standard of a known concentration. The solubility of the test compounds was calculated using the following formula: [Sample] = Area Ratio sample × DF sample × [STD] / Area Ratio STD DF: dilution factor. […]

A further data set deals with T1, CDK4/CyclinD1 (Homo sapiens, UniProt P11802).
T1 construct: purchased ProQinase 0142-0143-1
T1 sequence (P11802 whole entry): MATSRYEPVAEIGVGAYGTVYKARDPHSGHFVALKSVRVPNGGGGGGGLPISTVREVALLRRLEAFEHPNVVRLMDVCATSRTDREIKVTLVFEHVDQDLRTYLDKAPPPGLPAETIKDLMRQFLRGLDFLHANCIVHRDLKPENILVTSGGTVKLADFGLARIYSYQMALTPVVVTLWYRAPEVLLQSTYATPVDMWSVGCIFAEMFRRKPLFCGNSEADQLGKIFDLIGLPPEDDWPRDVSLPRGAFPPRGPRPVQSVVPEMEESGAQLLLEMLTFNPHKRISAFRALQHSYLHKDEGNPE
T1 sequence (P24385 whole entry partner): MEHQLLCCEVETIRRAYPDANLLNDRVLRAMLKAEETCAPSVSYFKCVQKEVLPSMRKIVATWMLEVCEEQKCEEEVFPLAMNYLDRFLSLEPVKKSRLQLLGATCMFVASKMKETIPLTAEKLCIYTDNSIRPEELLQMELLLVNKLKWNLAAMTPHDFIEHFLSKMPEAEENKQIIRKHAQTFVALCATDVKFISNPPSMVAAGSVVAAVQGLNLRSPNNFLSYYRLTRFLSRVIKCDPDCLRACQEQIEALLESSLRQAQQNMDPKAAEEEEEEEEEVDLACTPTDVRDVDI
The data set can be described thus: Kinase activity assay, mobility shift assay (CDK4/CyclinD1). In kind it is biochemical. The conditions noted are these: Table 18; read-out: CDK4/D1 IC50. As for the experimental part:
(§1) In vitro CDK kinase activity was tested using a mobility shift assay. […] A proper amount of kinase was added to the 1× kinase buffer to prepare a 2.5× enzyme solution. 5× compound dilutions (1× kinase buffer, 10% DMSO) corresponding to the test concentrations of the compounds were prepared. […] 5 µL of 5× compound dilution and 10 µL of 2.5× enzyme solution were added to reaction wells of a 384-well reaction plate. After thorough mixing, the plate was incubated at room temperature for 10 min. […] The reaction plate was incubated at 28 °C for 60 min (biochemical incubator model: SPX-100B-Z). 30 µL of stop solution was added to the 384-well reaction plate to stop the reactions, and the plate was centrifuged at 1000 rpm for 1 min.
(§2) IC50 values for the compounds were obtained by fitting using XLFit excel add-in version 5.4.0.8. Fitting formula: Y = Bottom + (Top−Bottom)/(1+((IC50/X))^(∧)HillSlope). [formula]

A further data set addresses T2, CDK6/CyclinD3 (Homo sapiens, UniProt Q00534).
T2 construct: purchased Carna 04-107
Briefly: Kinase activity assay, mobility shift assay (CDK6/CyclinD3). The conditions noted are these: Table 18; read-out: CDK6/D3 IC50. In kind it is biochemical. The protocol:
as §1, §2

For the next data set, the target named is CYP3A4 (Homo sapiens, UniProt P08684). Briefly: CYP inhibition assay in pooled human liver microsomes (CYP3A4, midazolam). In kind it is in vitro ADME. As to conditions: pH 7.4, probe midazolam (3 µM), 37 °C, read-out: CYP 3A4 half maximal inhibitory concentration (IC50).
CYP3A4, sequence (P08684 2-503): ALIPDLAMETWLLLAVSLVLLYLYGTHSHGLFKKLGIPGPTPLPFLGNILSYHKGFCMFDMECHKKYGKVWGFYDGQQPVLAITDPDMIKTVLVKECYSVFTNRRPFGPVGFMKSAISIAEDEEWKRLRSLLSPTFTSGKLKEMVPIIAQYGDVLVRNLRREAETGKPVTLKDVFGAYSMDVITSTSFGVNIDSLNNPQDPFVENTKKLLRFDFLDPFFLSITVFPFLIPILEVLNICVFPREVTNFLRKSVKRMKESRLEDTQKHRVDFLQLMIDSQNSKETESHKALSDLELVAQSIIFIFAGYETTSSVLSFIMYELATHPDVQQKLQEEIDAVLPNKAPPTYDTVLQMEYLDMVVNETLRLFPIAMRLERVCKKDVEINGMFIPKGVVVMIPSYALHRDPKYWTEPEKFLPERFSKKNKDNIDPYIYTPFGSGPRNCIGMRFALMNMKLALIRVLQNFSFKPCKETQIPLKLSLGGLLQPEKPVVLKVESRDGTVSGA
The next data set concerns the target CYP2C9 (Homo sapiens, UniProt P11712). The data set can be described thus: biochemical.
A further data set deals with CYP2C19 (Homo sapiens, UniProt P33261). Briefly: biochemical.
CYP2C19, sequence (P33261 whole entry): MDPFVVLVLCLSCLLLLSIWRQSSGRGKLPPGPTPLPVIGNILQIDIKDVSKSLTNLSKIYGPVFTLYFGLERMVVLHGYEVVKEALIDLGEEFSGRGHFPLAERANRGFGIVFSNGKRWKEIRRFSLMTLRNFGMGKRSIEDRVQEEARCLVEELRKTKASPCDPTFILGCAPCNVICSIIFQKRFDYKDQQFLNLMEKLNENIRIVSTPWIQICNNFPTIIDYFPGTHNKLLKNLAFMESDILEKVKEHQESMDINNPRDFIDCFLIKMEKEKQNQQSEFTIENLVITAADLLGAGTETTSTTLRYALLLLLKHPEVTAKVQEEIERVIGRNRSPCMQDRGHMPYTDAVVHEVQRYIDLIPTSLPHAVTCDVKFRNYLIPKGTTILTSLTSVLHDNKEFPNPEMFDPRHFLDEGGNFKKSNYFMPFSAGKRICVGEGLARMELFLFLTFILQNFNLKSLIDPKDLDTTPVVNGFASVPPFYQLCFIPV
Another data set addresses T3, human PXR (Homo sapiens, UniProt O75469).
T3 construct: host or cells: DPX2 (HepG2 stably transfected)
T3 sequence (O75469 1-434): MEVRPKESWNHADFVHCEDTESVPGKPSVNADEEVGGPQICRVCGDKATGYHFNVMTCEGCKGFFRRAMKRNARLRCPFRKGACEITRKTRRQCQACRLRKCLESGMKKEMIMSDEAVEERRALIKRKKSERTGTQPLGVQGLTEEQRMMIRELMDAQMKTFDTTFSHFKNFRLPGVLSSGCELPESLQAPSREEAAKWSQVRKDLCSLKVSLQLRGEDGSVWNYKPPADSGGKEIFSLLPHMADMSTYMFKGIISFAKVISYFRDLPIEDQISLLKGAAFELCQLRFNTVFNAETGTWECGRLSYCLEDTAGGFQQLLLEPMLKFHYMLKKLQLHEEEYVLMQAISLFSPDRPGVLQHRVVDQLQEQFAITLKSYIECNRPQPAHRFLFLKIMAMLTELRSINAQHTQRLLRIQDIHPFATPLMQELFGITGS
The data set can be described thus: PXR induction assay in DPX2 cells (luciferase reporter). In kind it is cell-based. The conditions noted are these: for fold induction at 24 h, 0.123 µM: compound concentration 0.123 µM; for fold induction at 24 h, 10 µM: compound concentration 10.0 µM. As for the experimental part:
• 1. […] The final concentration of DMSO was 0.1%. […] The reagent was gently and well mixed, and the mixture was incubated and well mixed at room temperature for 5 min.

Each structure is given as a SMILES string. Converted amounts (≈) assume the structure as drawn. A value given as a limit tells only on which side of the number the result lay.

CYP2C9, sequence (P11712 whole entry): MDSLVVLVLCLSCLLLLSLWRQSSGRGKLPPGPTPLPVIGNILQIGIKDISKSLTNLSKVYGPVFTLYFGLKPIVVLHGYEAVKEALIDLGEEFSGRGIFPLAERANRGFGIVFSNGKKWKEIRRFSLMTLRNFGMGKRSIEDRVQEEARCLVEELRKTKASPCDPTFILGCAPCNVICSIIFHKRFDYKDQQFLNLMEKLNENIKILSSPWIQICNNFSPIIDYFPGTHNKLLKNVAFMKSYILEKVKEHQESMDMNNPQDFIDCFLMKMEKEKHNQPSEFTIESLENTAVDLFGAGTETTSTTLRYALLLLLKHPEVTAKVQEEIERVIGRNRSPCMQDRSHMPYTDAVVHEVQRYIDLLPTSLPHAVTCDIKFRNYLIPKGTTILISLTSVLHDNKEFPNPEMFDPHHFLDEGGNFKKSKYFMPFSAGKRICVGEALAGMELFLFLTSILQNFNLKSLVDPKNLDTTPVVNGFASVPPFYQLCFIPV
T2 sequence (Q00534 whole entry): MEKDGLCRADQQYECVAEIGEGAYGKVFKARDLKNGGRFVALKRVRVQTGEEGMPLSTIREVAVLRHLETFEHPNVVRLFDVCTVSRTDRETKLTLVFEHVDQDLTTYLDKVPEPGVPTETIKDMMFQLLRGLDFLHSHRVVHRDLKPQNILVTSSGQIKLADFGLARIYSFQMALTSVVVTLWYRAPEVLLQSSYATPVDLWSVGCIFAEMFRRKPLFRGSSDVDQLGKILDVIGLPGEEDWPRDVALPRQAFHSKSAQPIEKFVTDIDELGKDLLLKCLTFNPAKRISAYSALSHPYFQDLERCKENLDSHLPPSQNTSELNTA
T2 sequence (P30281 whole entry partner): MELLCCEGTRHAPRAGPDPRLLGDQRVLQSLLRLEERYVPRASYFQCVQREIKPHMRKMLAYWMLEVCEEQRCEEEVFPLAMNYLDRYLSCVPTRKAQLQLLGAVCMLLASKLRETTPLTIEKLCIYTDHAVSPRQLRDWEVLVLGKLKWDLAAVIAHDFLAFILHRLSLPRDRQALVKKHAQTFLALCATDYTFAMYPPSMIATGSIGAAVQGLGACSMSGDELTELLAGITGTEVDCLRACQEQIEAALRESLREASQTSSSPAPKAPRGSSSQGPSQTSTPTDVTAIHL
Procedure for CYP2C19: (§3) The effects of different concentrations of the test compounds on the metabolic reactions of phenacetin (CYP1A2), diclofenac sodium (CYP2C9), S-mephenytoin (CYP2C19), bufuralol hydrochloride (CYP2D6), and midazolam (CYP3A4/5) were assessed by liquid chromatography-tandem mass spectrometry (LC/MS/MS).
(§4) Then, 200 µL of an acetonitrile solution containing 3% formic acid and 40 nM internal standard verapamil was added, and the mixture was centrifuged at 4000 rpm for 50 min. The mixture was cooled on ice for 20 min and centrifuged at 4000 rpm for 20 min to precipitate protein. 200 µL of the supernatant was taken for LC/MS/MS analysis.
(§5) The peak area was calculated based on the chromatogram. The residual activity proportion (%) was calculated using the following formula: peak area ratio = peak area of metabolite / peak area of internal standard [formula]
(§6) The half maximal inhibitory concentrations (IC50) against CYP were calculated using Excel XLfit 5.3.1.3.
Procedure for CYP2C9: as §3, §4, §5, §6

`C[C@H]1COc2c(-c3nc(N[C@@H]4CCOC[C@H]4O)ncc3Cl)cc(F)c3nc(C(C)(C)O)n1c23` (single isomer, unassigned) [Isomer 1 with a retention time of 2.078 min]: the solubility at 24 h in data set [1] was found to be 2200 µM (≈ 1050 µg/mL). The IC50 at CDK4/CyclinD1 is 8.2 nM; on CDK6/CyclinD3, 105 nM; against CYP2C9, over 30000 nM; against CYP2C19, over 30000 nM. For the same compound, at CYP3A4, the IC50 at 5 min was over 30000 nM. In addition, the fold induction at 24 h, 0.123 µM on human PXR is 0.87. The fold induction at 24 h, 10 µM on human PXR stood at 1.43.
`C[C@@H]1COc2c(-c3nc(N[C@@H]4CCOC[C@H]4O)ncc3Cl)cc(F)c3nc(C(C)(C)O)n1c23` (single isomer, unassigned) [Isomer 2 with a retention time of 1.887 min] came in with a solubility at 24 h in data set [1] of 2130 µM (≈ 1020 µg/mL). Besides, the IC50 at CDK4/CyclinD1 was 14 nM; at CDK6/CyclinD3, 228 nM; against CYP2C9, over 30000 nM; at CYP2C19, over 30000 nM. Besides, at CYP3A4, the IC50 at 5 min is over 30000 nM. In addition, the fold induction at 24 h, 0.123 µM at human PXR was 0.99. Further, the fold induction at 24 h, 10 µM at human PXR worked out at 1.48.
